In patent US12565480B2, “Thiophene derivatives as xanthine oxidase inhibitors and application thereof” (Tonghua Dongbao Pharmaceutical Co., Ltd., priority 2019, dated 2026):

Legend:
Human hepatocytes = assay: Hepatocytes metabolic stability (HMS), human hepatocytes; type: in vitro ADME; conditions: for Intrinsic hepatic clearance, Human: CLint(liver)
Description: (§1) Assay Example 3: Hepatocytes Metabolic Stability (HMS) Study
(§2) To test the metabolic stability of the test sample in human and rat hepatocytes.
(§3) 2.1 Test compound (10 mM), control substance: 7-Ethoxycoumarin (30 mM), 7-Hydroxycoumarin (control substance, 30 mM)
(§4) 2.3 Buffer System: • Thawing medium: Williams' medium E containing 5% fetal bovine serum, 30% Percoll solution and other auxiliary materials • Incubation medium: Williams medium E (without phenol red) containing 2 mM L-glutamine and 25 mM hydroxyethylpiperazine ethane sulfonic acid. • Stop solution: 200 ng/mL of tosylbutyramide and labetalol in acetonitrile as internal standards. • Dilution solution: Ultrapure water. 3. Method of the Assay • 1) The exact amount of positive control compound was dissolved in dimethyl sulfoxide (DMSO) to give a 30 mM solution • 2) 10 mM test compound and 30 mM positive control compound were diluted to 1 mM and 3 mM with DMSO in 96-well plates. • 3) 1 mM test compound and 3 mM positive control compound was diluted into 100 μM and 300 μM quantification solutions with acetonitrile. • 4) The cryopreserved cells were thawed, dissociated and suspended in culture medium, and then diluted to 0.5×10^6 cells/mL with pre-warmed culture medium. • 5) 198 μL of pre-warmed cell suspension was added to a 96-well plate. • 6) 100 μL of stop solution (acetonitrile containing 200 ng/mL tosylbutyramide and 200 ng/mL labetalol as internal standard) was transferred in a set of pre-labeled 96-well plates. • 7) 2 μL of 100 μM test compound or 300 μM positive control quantitation solution was added in duplicate to each well of the 96-well plate. • 8) The TO samples were mixed to achieve uniform suspension over about 1 min, and then 20 μL of each sample was immediately transferred into wells containing 100 μL of ice-cold stop solution followed by mixing. • 9) All plates were incubated at 37° C. in 5% CO2 in a 95% humidified incubator, with constant shaking at approximately 600 rpm for reaction. • 10) At 15, 30, 60 and 90 min, samples were mixed, and then 20 μL of each sample was transferred to wells containing 100 μL of ice-cold stop solution at each time point and mixed. • 11) Medium control (MC) sample plates (labeled as TO-MC and T90-MC) were prepared at TO and T90 by adding the same components to each well except for the cell suspension. […]
(§5) The elimination rate constant k of the test compound and the control compound in hepatocytes was calculated by plotting the logarithm of the residual ratio vs time, and the half-life (T1/2) and in vitro intrinsic clearance rate (CLint) were obtained by using the elimination rate k. […]

Rat hepatocytes = assay: Hepatocytes metabolic stability (HMS), rat hepatocytes; type: in vitro ADME; conditions: for Intrinsic hepatic clearance, Rat: CLint(liver)
Description: as §1, §2, §3, §4, §5

[1] = Pharmacokinetics in SD rats
Description: Pharmacokinetics of test compounds in SD rats
Sprague Dawley Rat (male, 180-350 g, 6-10 weeks old, Charles River Laboratories, Beijing)
Six male SD rats were divided into 2 groups. […] Whole blood was collected at 0 (the gavage group only), 0.083 (intravenous only), 0.25, 0.5, 1, 2, 4, 8 and 24 hours after administration. Whole blood was centrifuged at 3200 g at 4° C. for 10 min to obtain plasma.

MDR1-MDCK II cells = conditions: for Papp (AB) / Papp (BA): 2 μM, pH 7.4, […]; for Papp (AB): A to B; for Papp (BA): B to A
Description: Membrane Permeability MDR1 Test
MDR1-MDCK II cells are Madin-Darby canine kidney cells transfected with human MDR1 gene, which can stably express high P-gp. The aim of this study was to test the bidirectional permeability of compounds across the MDR1-MDCK II cell model and to assess whether they are transported by efflux.
Test compounds were diluted in transport buffer (HBSS, 10 mM Hepes with DMSO, pH 7.4) to a concentration of 2 μM (DMSO<1%) and applied on the apical or basolateral side of the cell monolayer. The compound to be tested was tested in duplicate in the direction of from A to B or from B to A, digoxin was tested at 10 μM in the direction of from A to B or from B to A, while nadolol and metoprolol were tested at 2 μM from A to B. Plates were incubated in a CO2 incubator at 37±1° C. in a saturated humidity of 5% CO2 for 2.5 hours without shaking. In addition, the efflux ratio of each compound was determined, and for the test and reference compounds quantitation was conducted. Analysis was carried out by LC/MS/MS according to the peak area ratio of analyte/IS. After the transport assay, the Lucifer Yellow exclusion assay was used to determine integrity of the cell monolayer. The buffer was removed from the apical and basolateral compartments, then 75 μL of 100 μM luciferin yellow was added to the transport buffer, and 250 μL of the transport buffer was added to the apical and basolateral compartments, respectively. The plate was incubated at 37° C., 5% CO2 and saturated humidity for 30 minutes without shaking. After 30 minutes of incubation, 20 μL of luciferin yellow sample was withdrawn from the apical, followed by the addition of 60 μL of transport buffer. An 80 μL luciferin yellow sample was then collected basolaterally.
The apparent permeability coefficient (Papp, cm/s), efflux rate and recovery rate were calculated using the following formulae.
[formula] dCr/dt is the cumulative concentration of the compound at the receiver end over unit time (μM/s); Vr is the volume of the receiver end solution (0.075 mL and 0.250 mL for the apical and basal ends, respectively); Ais the relative surface area (0.0804 cm^2) of the cell monolayer; C0 is the initial concentration (nM) of the test substance at the administration end or the peak area ratio of the reference substance.
[formula] C0 is the initial concentration (nM) of the test substance at the administration end or the peak area ratio of the reference substance; Va is the volume of the administration end (0.075 mL for the apical side and 0.250 mL for the basal side); Cd and Cr are the final concentration (nM) of the test substance at the administration end and the receiver end or the peak area ratio of the reference substance.

CYP2C19 = CYP2C19 (Homo sapiens (Human), UniProt P33261); assay: Cytochrome P450 isozyme inhibitory activity test, CYP2C19; type: in vitro ADME; conditions: human liver microsomes; read-out: Cytochrome P450 isoenzyme IC50, CYP2C19
Description: (§6) Cytochrome P450 Isozyme Inhibitory Activity Test
(§7) The inhibitory activities of test compounds against different subtypes of human cytochrome P450 isoenzymes were determined.
(§8) Preparing test compounds, standard inhibitor (100×final concentration) and mixed substrate working solutions; Microsomes (purchased from Corning Inc) frozen in −80° C. freezer was taken out and thawed. 20 μL of the test compound and standard inhibitor solution were added to the corresponding wells, and at the same time 20 μL of the corresponding solvent was added to the no inhibitor control wells (NIC) and blank control wells (Blank); then 20 μL of mixed substrate solution was added to the corresponding wells, except for Blank wells (adding 20 μL of Phosphate Buffer (PB) to Blank wells); the human liver microsome solution was prepared (marking the date after use and putting back in the refrigerator immediately), then 158 μL of human liver microsome solution was immediately added to all wells; the above sample plate was pre-incubated in a 37° C. water bath, and then coenzyme factor (NADPH) solution was prepared; 10 minutes later, 20 μL of NADPH solution was added to all wells. […]

CYP2C9 = CYP2C9 (Homo sapiens (Human), UniProt P11712); assay: Cytochrome P450 isozyme inhibitory activity test, CYP2C9; type: in vitro ADME; conditions: human liver microsomes; read-out: Cytochrome P450 isoenzyme IC50, CYP2C9
Description: as §6, §7, §8

CYP3A4-M = CYP3A4-M (Homo sapiens (Human), UniProt P08684); assay: Cytochrome P450 isozyme inhibitory activity test, CYP3A4-M; type: in vitro ADME; conditions: human liver microsomes; read-out: Cytochrome P450 isoenzyme IC50, CYP3A4-M
Description: as §6, §7, §8

CYP1A2 = CYP1A2 (Homo sapiens (Human), UniProt P05177); assay: Cytochrome P450 isozyme inhibitory activity test, CYP1A2; type: in vitro ADME; conditions: human liver microsomes; read-out: Cytochrome P450 isoenzyme IC50, CYP1A2
Description: as §6, §7, §8

CYP2D6 = CYP2D6 (Homo sapiens (Human), UniProt P10635); assay: Cytochrome P450 isozyme inhibitory activity test, CYP2D6; type: in vitro ADME; conditions: human liver microsomes; read-out: Cytochrome P450 isoenzyme IC50, CYP2D6
Description: as §6, §7, §8

[2] = high dose of 80 mg/day; cited from earlier work
[3] = 2 subjects; cited from earlier work

Chain of CYP1A2 (P05177 whole entry): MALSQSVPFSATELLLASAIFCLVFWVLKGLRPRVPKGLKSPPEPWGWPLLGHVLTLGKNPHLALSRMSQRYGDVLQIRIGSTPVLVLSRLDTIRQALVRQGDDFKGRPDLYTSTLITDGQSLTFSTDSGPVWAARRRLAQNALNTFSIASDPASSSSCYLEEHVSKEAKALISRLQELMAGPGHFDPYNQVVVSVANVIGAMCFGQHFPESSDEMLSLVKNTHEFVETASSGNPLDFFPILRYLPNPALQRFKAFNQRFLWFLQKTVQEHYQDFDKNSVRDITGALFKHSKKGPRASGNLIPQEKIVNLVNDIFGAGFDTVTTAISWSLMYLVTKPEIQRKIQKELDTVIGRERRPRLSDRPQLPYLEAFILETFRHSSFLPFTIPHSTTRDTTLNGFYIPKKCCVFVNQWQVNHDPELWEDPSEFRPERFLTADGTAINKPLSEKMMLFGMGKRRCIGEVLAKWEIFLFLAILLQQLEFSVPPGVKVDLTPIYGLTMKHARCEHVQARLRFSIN
Chain of CYP3A4-M (P08684 whole entry): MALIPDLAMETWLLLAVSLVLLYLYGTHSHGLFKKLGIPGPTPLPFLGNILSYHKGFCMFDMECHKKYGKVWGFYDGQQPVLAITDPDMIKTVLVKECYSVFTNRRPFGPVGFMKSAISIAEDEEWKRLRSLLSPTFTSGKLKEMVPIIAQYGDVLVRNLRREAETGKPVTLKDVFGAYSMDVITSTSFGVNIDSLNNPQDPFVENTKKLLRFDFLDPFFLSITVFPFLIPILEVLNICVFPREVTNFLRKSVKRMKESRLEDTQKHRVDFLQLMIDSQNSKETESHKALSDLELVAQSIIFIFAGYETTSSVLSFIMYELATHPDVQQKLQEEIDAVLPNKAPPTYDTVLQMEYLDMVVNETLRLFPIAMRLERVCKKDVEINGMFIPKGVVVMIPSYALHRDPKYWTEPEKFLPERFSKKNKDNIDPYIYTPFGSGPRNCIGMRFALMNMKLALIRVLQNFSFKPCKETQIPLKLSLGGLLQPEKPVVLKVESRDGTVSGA
Chain of CYP2C9 (P11712 whole entry): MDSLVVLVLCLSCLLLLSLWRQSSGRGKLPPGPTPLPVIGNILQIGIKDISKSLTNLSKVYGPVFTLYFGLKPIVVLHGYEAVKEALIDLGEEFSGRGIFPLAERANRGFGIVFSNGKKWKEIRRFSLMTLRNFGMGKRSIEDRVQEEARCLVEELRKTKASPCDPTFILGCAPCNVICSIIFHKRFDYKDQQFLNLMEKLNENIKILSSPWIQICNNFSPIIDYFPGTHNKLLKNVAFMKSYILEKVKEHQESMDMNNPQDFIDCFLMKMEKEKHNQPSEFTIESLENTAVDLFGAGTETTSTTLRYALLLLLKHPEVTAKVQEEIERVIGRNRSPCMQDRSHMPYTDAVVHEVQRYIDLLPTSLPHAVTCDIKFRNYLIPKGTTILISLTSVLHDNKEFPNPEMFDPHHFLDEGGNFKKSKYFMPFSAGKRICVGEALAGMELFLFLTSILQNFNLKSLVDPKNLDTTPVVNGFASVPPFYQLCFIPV
Chain of CYP2D6 (P10635 whole entry): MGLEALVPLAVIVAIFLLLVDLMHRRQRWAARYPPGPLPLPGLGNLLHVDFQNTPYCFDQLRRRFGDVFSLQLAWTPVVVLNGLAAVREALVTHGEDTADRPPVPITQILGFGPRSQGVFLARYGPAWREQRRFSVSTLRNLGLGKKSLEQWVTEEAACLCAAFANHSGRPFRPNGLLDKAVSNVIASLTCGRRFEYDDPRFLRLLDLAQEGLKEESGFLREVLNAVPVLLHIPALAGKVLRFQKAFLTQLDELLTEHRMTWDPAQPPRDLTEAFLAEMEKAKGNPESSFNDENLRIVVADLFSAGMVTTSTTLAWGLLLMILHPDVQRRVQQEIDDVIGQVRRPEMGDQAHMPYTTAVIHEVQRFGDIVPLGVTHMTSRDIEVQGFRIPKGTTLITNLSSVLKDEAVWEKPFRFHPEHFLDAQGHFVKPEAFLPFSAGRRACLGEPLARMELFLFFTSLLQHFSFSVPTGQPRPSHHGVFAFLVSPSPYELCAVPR
Chain of CYP2C19 (P33261 whole entry): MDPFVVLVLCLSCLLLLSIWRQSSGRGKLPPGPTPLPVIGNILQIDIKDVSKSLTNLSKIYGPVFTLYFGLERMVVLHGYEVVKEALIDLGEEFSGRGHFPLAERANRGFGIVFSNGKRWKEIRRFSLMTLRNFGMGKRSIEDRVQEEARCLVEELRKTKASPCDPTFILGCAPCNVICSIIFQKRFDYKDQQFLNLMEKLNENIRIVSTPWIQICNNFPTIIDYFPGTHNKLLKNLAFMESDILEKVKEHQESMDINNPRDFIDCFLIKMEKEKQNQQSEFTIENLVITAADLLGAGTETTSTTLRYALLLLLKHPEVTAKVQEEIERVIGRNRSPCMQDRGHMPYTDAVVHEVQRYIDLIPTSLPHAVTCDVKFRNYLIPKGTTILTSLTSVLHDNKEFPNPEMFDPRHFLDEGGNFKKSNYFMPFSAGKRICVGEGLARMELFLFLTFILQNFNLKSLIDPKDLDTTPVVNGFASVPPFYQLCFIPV

Row | Structure (SMILES) | Clearance in human hepatocytes (in words) (Human hepatocytes) | Intrinsic hepatic clearance, Human (Human hepatocytes) [mL/min/kg] | Clearance in rat hepatocytes (in words) (Rat hepatocytes) | Intrinsic hepatic clearance, Rat (Rat hepatocytes) [mL/min/kg] | Permeability (in words) (MDR1-MDCK II cells) | Papp (AB) (MDR1-MDCK II cells) | Papp (BA) (MDR1-MDCK II cells) | IC50 (CYP2C19) [µM] | IC50 (CYP2C9) [µM] | IC50 (CYP3A4-M) [µM] | IC50 (CYP1A2) [µM] | IC50 (CYP2D6) [µM] | also measured
1 | N#Cc1sc(-c2ccc(C(=O)O)c(O)c2)c2c1CCC(F)(F)C2 [Compound 2] | moderate clearance | 31.8 | high clearance | 188.4 | high permeability | 26.42 10^−6 cm/s | 6.63 10^−6 cm/s | > 50 | 18.1 | > 50 | > 50 | > 50 | Pharmacokinetic properties (in words) [1]: good pharmacokinetic properties; AUC0-inf ([1]; 2.89 mpk Intravenous injection): 41.8 µM·h; C0 ([1]; 2.89 mpk Intravenous injection): 96.6 µM; Cl ([1]; 2.89 mpk Intravenous injection): 3.59 mL/min/kg; T1/2 ([1]; 2.89 mpk Intravenous injection): 3.74 h; Vdss ([1]; 2.89 mpk Intravenous injection): 0.32 L/kg; AUC0-inf ([1]; 8.58 mpk Oral): 86.6 µM·h; Cmax ([1]; 8.58 mpk Oral): 27.5 µM; T1/2 ([1]; 8.58 mpk Oral): 2.47 h; Tmax ([1]; 8.58 mpk Oral): 0.5 h; Bioavailability ([1]; 8.58 mpk Oral vs 2.89 mpk Intravenous injection): 62.1%; Oral bioavailability (in words) ([1]; oral): high oral bioavailability
2 | N#Cc1sc(-c2ccc(C(=O)O)c(O)c2)c2c1CCC2 [Compound 3] | moderate clearance | 48.2 | high clearance | 1097.9 | high permeability | 38.63 10^−6 cm/s | 10.99 10^−6 cm/s | > 50 | 14.8 | > 50 | > 50 | > 50 | –
3 | Cc1nc(-c2ccc(OCC(C)C)c(C#N)c2)sc1C(=O)O [febusteine] | – | – | – | – | – | – | – | – | – | – | – | – | Patients who do not achieve the expected goal of lowing uric acid [2]: 40% to 52
4 | N#Cc1cn(-c2ccc(C(=O)O)c(O)c2)c2ccccc12 [PF-06743649] | – | – | – | – | – | – | – | – | – | – | – | – | Side effects after administration in clinical phase I trial [3]: acute PF-06743649-induced renal injury side effects
